Test results from PubChem BioAssay AID1963981 (Molecular Pharmacology Branch, DTP, NCI, 2024).
One block for each compound: values may come before it.

Tested on: 354836-022-R-J1-PDC multicell spheroid viability
Assay: Anticancer human tumor 354836-022-R-J1-PDC patient-derived head and neck squamous cell carcinoma cell line growth inhibition [PI3K]
Settings: for IC50: curve of first compound; for viability, T/C: stronger effect = lower value
Outline: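 We assembled tumor spheroids that included a stromal compartment of HUVEC and MSCs, then exposed them to targeted agents alone and together with PI3K pathway inhibitors. Concentration series descended by half-log from clinically achievable Cmax levels. Viability served as the endpoint.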

[1] = second compound 0.0316 µM, first compound 0.0316 µM
[2] = second compound 0.0316 µM, first compound 0.1 µM
[3] = second compound 0.0316 µM, first compound 0.316 µM
[4] = second compound 0.0316 µM, first compound 1 µM
[5] = second compound 0.0316 µM, first compound 3.16 µM
[6] = second compound 0.0316 µM, first compound 10 µM
[7] = second compound 0.1 µM, first compound 0.0316 µM
[8] = second compound 0.1 µM, first compound 0.1 µM
[9] = second compound 0.1 µM, first compound 0.316 µM
[10] = second compound 0.1 µM, first compound 1 µM
[11] = second compound 0.1 µM, first compound 3.16 µM
[12] = second compound 0.1 µM, first compound 10 µM
[13] = second compound 0.316 µM, first compound 0.0316 µM
[14] = second compound 0.316 µM, first compound 0.1 µM
[15] = second compound 0.316 µM, first compound 0.316 µM
[16] = second compound 0.316 µM, first compound 1 µM
[17] = second compound 0.316 µM, first compound 3.16 µM
[18] = second compound 0.316 µM, first compound 10 µM
[19] = second compound 1 µM, first compound 0.0316 µM
[20] = second compound 1 µM, first compound 0.1 µM
[21] = second compound 1 µM, first compound 0.316 µM
[22] = second compound 1 µM, first compound 1 µM
[23] = second compound 1 µM, first compound 3.16 µM
[24] = second compound 1 µM, first compound 10 µM
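Also: spheroids exposed to agents for seven days before the viability read.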

IC50 (second compound 0.0316 µM): > 10 µM
IC50 (second compound 0.1 µM): > 10 µM
IC50 (second compound 0.316 µM): > 10 µM
IC50 (second compound 1 µM): > 10 µM
IC50 (second compound 3.16 µM): > 10 µM
IC50 (second compound 10 µM): < 0.0316 µM
SMILES: C=CC(=O)N1CCN(c2nc(=O)n(-c3c(C)ccnc3C(C)C)c3nc(-c4c(O)cccc4F)c(F)cc23)C(C)C1 (centres undefined) + Cc1nc(NC(=O)N2CCCC2C(N)=O)sc1-c1ccnc(C(C)(C)C(F)(F)F)c1
viability, T/C [1]: 100%
viability, T/C [2]: 90.5%
viability, T/C [3]: 96.2%
viability, T/C [4]: 87.7%
viability, T/C [5]: 113%
viability, T/C [6]: 92.5%
viability, T/C [7]: 118%
viability, T/C [8]: 100%
viability, T/C [9]: 97.2%
viability, T/C [10]: 96.7%
viability, T/C [11]: 110%
viability, T/C [12]: 105%
viability, T/C [13]: 90.5%
viability, T/C [14]: 99.2%
viability, T/C [15]: 92.1%
viability, T/C [16]: 90.6%
viability, T/C [17]: 105%
viability, T/C [18]: 97.6%
viability, T/C [19]: 72.6%
viability, T/C [20]: 77.8%
viability, T/C [21]: 84.1%
viability, T/C [22]: 105%
viability, T/C [23]: 88%
viability, T/C [24]: 89.4%
viability, T/C (second compound 3.16 µM, first compound 0.0316 µM): 57.8%
viability, T/C (second compound 3.16 µM, first compound 0.1 µM): 65.8%
viability, T/C (second compound 3.16 µM, first compound 0.316 µM): 71.8%
viability, T/C (second compound 3.16 µM, first compound 1 µM): 72.2%
viability, T/C (second compound 3.16 µM, first compound 3.16 µM): 90.7%
viability, T/C (second compound 3.16 µM, first compound 10 µM): 60.2%
viability, T/C (second compound 10 µM, first compound 0.0316 µM): 36.8%
viability, T/C (second compound 10 µM, first compound 0.1 µM): 36.5%
viability, T/C (second compound 10 µM, first compound 0.316 µM): 33.7%
viability, T/C (second compound 10 µM, first compound 1 µM): 46.4%
viability, T/C (second compound 10 µM, first compound 3.16 µM): 43.8%
viability, T/C (second compound 10 µM, first compound 10 µM): 29.5%

IC50 (second compound 0.00316 µM): 5.87 µM
IC50 (second compound 0.01 µM): 5.89 µM
IC50 (second compound 0.0316 µM): 4.28 µM
IC50 (second compound 0.1 µM): < 0.0316 µM
IC50 (second compound 0.316 µM): < 0.0316 µM
IC50 (second compound 1 µM): < 0.0316 µM
SMILES: CCCS(=O)(=O)Nc1ccc(F)c(C(=O)c2c[nH]c3ncc(-c4ccc(Cl)cc4)cc23)c1F + COc1c(OCCCN2CCOCC2)ccc2c3n(c(=NC(=O)c4cnc(N)nc4)nc12)CCN3
viability, T/C (second compound 0.00316 µM, first compound 0.0316 µM): 99.6%
viability, T/C (second compound 0.00316 µM, first compound 0.1 µM): 96%
viability, T/C (second compound 0.00316 µM, first compound 0.316 µM): 97.8%
viability, T/C (second compound 0.00316 µM, first compound 1 µM): 108%
viability, T/C (second compound 0.00316 µM, first compound 3.16 µM): 86.4%
viability, T/C (second compound 0.00316 µM, first compound 10 µM): 18.6%
viability, T/C (second compound 0.01 µM, first compound 0.0316 µM): 85.1%
viability, T/C (second compound 0.01 µM, first compound 0.1 µM): 93.7%
viability, T/C (second compound 0.01 µM, first compound 0.316 µM): 93.7%
viability, T/C (second compound 0.01 µM, first compound 1 µM): 91.4%
viability, T/C (second compound 0.01 µM, first compound 3.16 µM): 86.4%
viability, T/C (second compound 0.01 µM, first compound 10 µM): 19.1%
viability, T/C [1]: 72.8%
viability, T/C [2]: 86.7%
viability, T/C [3]: 86.3%
viability, T/C [4]: 78.6%
viability, T/C [5]: 64%
viability, T/C [6]: 11.1%
viability, T/C [7]: 48.2%
viability, T/C [8]: 43.8%
viability, T/C [9]: 47.1%
viability, T/C [10]: 56.4%
viability, T/C [11]: 40.7%
viability, T/C [12]: 7.62%
viability, T/C [13]: 12.5%
viability, T/C [14]: 13.2%
viability, T/C [15]: 12.3%
viability, T/C [16]: 13.6%
viability, T/C [17]: 12.4%
viability, T/C [18]: 1.45%
viability, T/C [19]: 1.35%
viability, T/C [20]: 1.58%
viability, T/C [21]: 2.26%
viability, T/C [22]: 1.47%
viability, T/C [23]: 1.69%
viability, T/C [24]: 0.99%
